Source: PubChem BioAssay AID2060613 (Molecular Pharmacology Branch, DTP, NCI, 2025)
“And” between values parts separate entries of the source, which are not always exact repeats. Equal values may be shown once.

Test system: 233499-124-R-J3-PDC complex spheroid viability
Assay: Anticancer human tumor 233499-124-R-J3-PDC patient-derived colon adenocarcinoma cell line growth inhibition [CLK]
Conditions: for viability, T/C: stronger effect = lower value
In short: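 Multi-cell-type spheroids combined patient-derived tumor cells with HUVEC endothelial cells and human mesenchymal stem cells. Paired agents were dosed in half-log steps down from about clinical Cmax, or from 10 microM where Cmax was unknown.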

[1] = curve of first compound, second compound 0.0316 µM
[2] = curve of first compound, second compound 0.1 µM
[3] = curve of first compound, second compound 0.316 µM
[4] = curve of first compound, second compound 1 µM
[5] = curve of first compound, second compound 3.16 µM
[6] = curve of first compound, second compound 10 µM
[7] = second compound 0.0316 µM, first compound 0.0316 µM
[8] = second compound 0.0316 µM, first compound 0.1 µM
[9] = second compound 0.1 µM, first compound 0.0316 µM
[10] = second compound 0.1 µM, first compound 0.1 µM
[11] = second compound 0.316 µM, first compound 0.0316 µM
[12] = second compound 0.316 µM, first compound 0.1 µM
[13] = second compound 1 µM, first compound 0.0316 µM
[14] = second compound 1 µM, first compound 0.1 µM
[15] = second compound 3.16 µM, first compound 0.0316 µM
[16] = second compound 3.16 µM, first compound 0.1 µM
[17] = second compound 10 µM, first compound 0.0316 µM
[18] = second compound 10 µM, first compound 0.1 µM
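Note: spheroids exposed to the drug combinations for seven days.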
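Throughout, for viability, T/C: percent viability relative to DMSO vehicle control wells taken as 100%.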

## Cn1ncnc1[C@H]1c2n[nH]c(=O)c3cc(F)cc(c23)N[C@@H]1c1ccc(F)cc1 + CNC(=O)c1ccc(Nc2nc(OC3CCCC3)c3c(-c4ccc5nc(C)oc5c4)c[nH]c3n2)c(OC)c1
[1]
  IC50: > 100 nM
[2]
  IC50: > 100 nM
[3]
  IC50: > 100 nM
[4]
  IC50: > 100 nM
[5]
  IC50: > 100 nM
[6]
  IC50: > 100 nM
Second compound 0.0316 µM, first compound 0.000316 µM
  viability, T/C: 91.3%
Second compound 0.0316 µM, first compound 0.001 µM
  viability, T/C: 96.5%
Second compound 0.0316 µM, first compound 0.00316 µM
  viability, T/C: 91%
Second compound 0.0316 µM, first compound 0.01 µM
  viability, T/C: 95.9%
[7]
  viability, T/C: 110%
[8]
  viability, T/C: 103%
Second compound 0.1 µM, first compound 0.000316 µM
  viability, T/C: 77.5%
Second compound 0.1 µM, first compound 0.001 µM
  viability, T/C: 71.4%
Second compound 0.1 µM, first compound 0.00316 µM
  viability, T/C: 77.2%
Second compound 0.1 µM, first compound 0.01 µM
  viability, T/C: 71.8%
[9]
  viability, T/C: 78.8%
[10]
  viability, T/C: 60.8%
Second compound 0.316 µM, first compound 0.000316 µM
  viability, T/C: 80.5%
Second compound 0.316 µM, first compound 0.001 µM
  viability, T/C: 75.5%
Second compound 0.316 µM, first compound 0.00316 µM
  viability, T/C: 58.6%
Second compound 0.316 µM, first compound 0.01 µM
  viability, T/C: 57.7%
[11]
  viability, T/C: 66%
[12]
  viability, T/C: 64.5%
Second compound 1 µM, first compound 0.000316 µM
  viability, T/C: 76.5%
Second compound 1 µM, first compound 0.001 µM
  viability, T/C: 87.3%
Second compound 1 µM, first compound 0.00316 µM
  viability, T/C: 79.8%
Second compound 1 µM, first compound 0.01 µM
  viability, T/C: 74.1%
[13]
  viability, T/C: 56.8%
[14]
  viability, T/C: 59.7%
Second compound 3.16 µM, first compound 0.000316 µM
  viability, T/C: 67.3%
Second compound 3.16 µM, first compound 0.001 µM
  viability, T/C: 69%
Second compound 3.16 µM, first compound 0.00316 µM
  viability, T/C: 69.3%
Second compound 3.16 µM, first compound 0.01 µM
  viability, T/C: 67.8%
[15]
  viability, T/C: 72.8%
[16]
  viability, T/C: 64.8%
Second compound 10 µM, first compound 0.000316 µM
  viability, T/C: 67.1%
Second compound 10 µM, first compound 0.001 µM
  viability, T/C: 56.3%
Second compound 10 µM, first compound 0.00316 µM
  viability, T/C: 74.3%
Second compound 10 µM, first compound 0.01 µM
  viability, T/C: 73.9%
[17]
  viability, T/C: 50.5%
[18]
  viability, T/C: 58.1%

## Cn1ncnc1[C@H]1c2n[nH]c(=O)c3cc(F)cc(c23)N[C@@H]1c1ccc(F)cc1
Compound 0.000316 µM
  viability, T/C: 100% and 107%
Compound 0.001 µM
  viability, T/C: 85.7% and 92%
Compound 0.00316 µM
  viability, T/C: 100% and 103%
Compound 0.01 µM
  viability, T/C: 97.6% and 97.4%
Compound 0.0316 µM
  viability, T/C: 100% and 97.1%
Compound 0.1 µM
  viability, T/C: 103% and 96%
Curve of compound
  IC50: > 100 nM

## COc1ccc([C@@H](O)c2cc(-c3ncnc4cc(N5CCOCC5)ccc34)c(F)cc2Cl)nn1 + CN1CCN(c2cc(C(=O)Nc3cc4cc(-c5cnn(C)c5)ccc4cn3)ccn2)CC1
[1]
  IC50: > 10000 nM
[2]
  IC50: 9830 nM
[3]
  IC50: 8500 nM
[4]
  IC50: < 31.6 nM
[5]
  IC50: < 31.6 nM
[6]
  IC50: < 31.6 nM
[7]
  viability, T/C: 101%
[8]
  viability, T/C: 99.3%
Second compound 0.0316 µM, first compound 0.316 µM
  viability, T/C: 102%
Second compound 0.0316 µM, first compound 1 µM
  viability, T/C: 105%
Second compound 0.0316 µM, first compound 3.16 µM
  viability, T/C: 83%
Second compound 0.0316 µM, first compound 10 µM
  viability, T/C: 56.7%
[9]
  viability, T/C: 98.7%
[10]
  viability, T/C: 95%
Second compound 0.1 µM, first compound 0.316 µM
  viability, T/C: 105%
Second compound 0.1 µM, first compound 1 µM
  viability, T/C: 93.7%
Second compound 0.1 µM, first compound 3.16 µM
  viability, T/C: 78.9%
Second compound 0.1 µM, first compound 10 µM
  viability, T/C: 49.5%
[11]
  viability, T/C: 80.5%
[12]
  viability, T/C: 92.5%
Second compound 0.316 µM, first compound 0.316 µM
  viability, T/C: 96%
Second compound 0.316 µM, first compound 1 µM
  viability, T/C: 88.3%
Second compound 0.316 µM, first compound 3.16 µM
  viability, T/C: 87.7%
Second compound 0.316 µM, first compound 10 µM
  viability, T/C: 43.8%
[13]
  viability, T/C: 0.59%
[14]
  viability, T/C: 0.54%
Second compound 1 µM, first compound 0.316 µM
  viability, T/C: 0.4%
Second compound 1 µM, first compound 1 µM
  viability, T/C: 0.92%
Second compound 1 µM, first compound 3.16 µM
  viability, T/C: 0.89%
Second compound 1 µM, first compound 10 µM
  viability, T/C: 0.79%
[15]
  viability, T/C: 0.54%
[16]
  viability, T/C: 0.7%
Second compound 3.16 µM, first compound 0.316 µM
  viability, T/C: 0.68%
Second compound 3.16 µM, first compound 1 µM
  viability, T/C: 0.83%
Second compound 3.16 µM, first compound 3.16 µM
  viability, T/C: 0.94%
Second compound 3.16 µM, first compound 10 µM
  viability, T/C: 1.93%
[17]
  viability, T/C: 0.36%
[18]
  viability, T/C: 0.41%
Second compound 10 µM, first compound 0.316 µM
  viability, T/C: 0.43%
Second compound 10 µM, first compound 1 µM
  viability, T/C: 0.46%
Second compound 10 µM, first compound 3.16 µM
  viability, T/C: 0.73%
Second compound 10 µM, first compound 10 µM
  viability, T/C: 1.14%
